Experimental data as given in US20250186456A1, “PYRIMIDINE-FUSED CYCLIC COMPOUND AND PREPARATION METHOD AND USE THEREOF” (Genfleet Therapeutics (Shanghai) Inc., priority 2021, published 2025).
Like-named read-outs stand apart in the source and are kept apart here.

Columns and labels:
Type in all cases: cell-based, human
[1] = tested on: AsPC-1 cells (KRAS G12D mutation); experiment: Cell proliferation inhibition assay, 3D, CellTiter-Glo 3D, AsPC-1; conditions: AsPC-1 3D sphere model, 5 days incubation
Description: (§1) AsPC-1 was purchased from ATCC; catalog No: CRL-1682; AGS was purchased from ATCC; catalog No: CRL-1739; RPMI1640 was purchased from Gibco; catalog No: 11875-093 2235123; F12K was purchased from Gibco; catalog No: 21127-022; FBS was purchased from Gibco; catalog No: 10099-141C; trypsin (containing EDTA) was purchased from Gibco; catalog No: 25200-072; CellTiter Glo-3D was purchased from Progema; catalog No: G9683; 384-well sphere plates were purchased from Corning; catalog No: 3830; white opaque 384-well plates were purchased from Corning; catalog No: 3570; cell counters were purchased from CHEMOMETEC; model: NC-200; microplate reader was purchased from PerkinElmer; model: Envison;
(§2) AsPC-1 is an endogenous human pancreatic cancer cell containing KRAS^G12D mutation, cultured in RPMI-1640 medium containing 10% FBS; AGS is a human gastric cancer cell line containing KRAS^G12D, cultured in F-12K medium containing 10% FBS. Cells in the logarithmic growth phase were taken, digested with trypsin (containing EDTA), collected, and counted. 800 AsPC-1 cells/well or 400 AGS cells/well, respectively, were seeded in a 384-well sphere plate and cultured overnight at 5% CO2 to establish a 3D cell model. 1000X stock solutions of compounds at a 3.16-fold concentration gradient of were prepared using DMSO, diluted 100-fold into a 10X compound stock solution using the medium described above. The 10X compound stock solution was added to each cell on 2nd day after cell seeding at a final concentration of 1X and a DMSO content of 0.1%. DMSO was used as a control in the experiment, and the medium was used as blank. After the addition of the compounds, the cells were incubated for 5 days. 30 μl of CellTiter-Glo work solution was added to each well, mixed well, and incubated for 30 minutes. After standing at room temperature for 30 minutes, 40 μl of the mixed solution was transferred to an opaque 384-well plate with a white clear bottom. Luminescence chemiluminescence value was read by a microplate reader, and the cell proliferation inhibition rate (IR (%)=(RLU control-RLU compound)/(RLU control-RLU blank)×100%) was calculated. The gradiently diluted concentration of the compounds and corresponding cell proliferation inhibition rate were fitted using XLFit four-parameters method, and the IC50 value was calculated. […] The results of some exemplary compounds are shown in Table 2 (“−” represents untested).

[2] = tested on: p-ERK in AGS cells (KRAS G12D mutation); experiment: Cell p-ERK assay (HTRF, Advance ERK phospho-T202/Y204 kit); conditions: AGS cells, 3 hours incubation with compound, HTRF, read-out: AGS p-ERK IC50
Method: AGS was purchased from ATCC; catalog No: CRL-1739; F12K was purchased from Gibco; catalog No: 21127-022; FBS was purchased from Gibco; catalog No: 10099-141C; trypsin (containing EDTA) was purchased from Gibco, catalog No: 25200-072; DMSO was purchased from VWRAMRESCO; catalog No: 0231-500 ML; 96-well cell culture plates were purchased from Corning; catalog No: 3599; white opaque 96-well plates were purchased from Cisbio; catalog No: 66PL96025; Advance ERK phospho-T202/Y204 kit was purchased from Cisbio; catalog No: 64AERPEH; cell counters were purchased from CHEMOMETEC; model No: NC-200; microplate reader was purchased from PerkinElmer; model No: Envison.
AGS is an endogenous human gastric adenocarcinoma cell line containing the KRAS^G12D mutation, cultured in F12K+10% FBS medium. On the first day of the experiment, cells in the logarithmic growth phase were taken, digested with trypsin (containing EDTA), collected, and counted. Approximately 20000 cells/well were seeded in a 96-well cell culture plate and cultured overnight in an incubator with 5% CO2. 1000X stock solutions of compounds at a 3.16-fold concentration gradient were prepared using DMSO, and diluted 200-fold into a 5X compound stock solution using the medium described above. The 5X compound stock solution was added to each cell culturing well the day after cell seeding at a final concentration of 1X and a DMSO content of 0.1%. DMSO was used as a control in the experiment. After the compound was added and the incubation was kept for 3 hours, the medium in the culture wells was removed. 50 μl of Cell lysis solution (from Advance ERK phospho-T202/Y204 kit, the same below) was added to each well, mixed well, and incubated for 30 minutes and then 16 μl of the mixed solution was transferred to a white opaque 96-well plate, another 16 μl of cell lysis solution was added to a well as a blank well. After transferring, 4 μl of p-ERK HTRF antibody mixture (from Advance ERK phospho-T202/Y204 kit) was added to each well. After incubation for 4 hours, HTRF fluorescence value (RLU) was read by a microplate reader, and p-ERK level inhibition rate (IR (%)=(RLU control-RLU compound)/(RLU control-RLU blank)×100%) of the compounds was calculated. The concentration of the compounds and corresponding cell p-ERK level inhibition rate were fitted using Prism 8 four-parameters method, and the IC50 value was calculated.

AGS cells (KRAS G12D) = experiment: Cell proliferation inhibition assay, 3D, CellTiter-Glo 3D, AGS; conditions: AGS 3D sphere model, 5 days incubation
Description: as §1, §2

| Molecule | IC50 [1] [nM] | IC50 [2] [nM] | IC50 (AGS cells (KRAS G12D)) [nM] | IC50 ([1]; Homo sapiens, ASPC1, 120 h) [nM] | IC50 ([2]; Homo sapiens) [nM] | IC50 (AGS cells (KRAS G12D); Homo sapiens, 120 h) [nM] |
| --- | --- | --- | --- | --- | --- | --- |
| 5-ethynyl-3-fluoro-4-((58,5aS,6S,9R)-1-fluoro-S-methyl-12-((1-(morpholinomethyl)cyclopropyl)methoxy)-5a,6,7,8,9,10-hexahydro-5H-4-oxa-3,10a, 11, 13,14-pentaaza-6,9-methanonaphtho[1,8-ab]heptalene-2-yl) naphthalen-2-amine [Example Z707] | 5.24 | 0.95 | 7.44 |  |  |  |
| C#Cc1c(F)ccc2cccc(-c3nc4c5c(nc(OC[C@@]67CCCN6C[C@@H]6C[C@@H]67)nc5c3F)N3C[C@H]5CC[C@H](N5)[C@H]3[C@H](C)O4)c12 (single isomer, unassigned) [Example Z626-2] |  |  |  | 56.6 | 20.6 | 28.2 |
| C#Cc1c(F)ccc2cccc(-c3nc4c5c(nc(OC[C@@]67CCCN6C[C@H]6C[C@H]67)nc5c3F)N3C[C@H]5CC[C@H](N5)[C@H]3[C@H](C)O4)c12 (single isomer, unassigned) [Example Z627-2] |  |  |  | 287 | 59.3 | 83.4 |
| C#Cc1c(F)ccc2cccc(-c3nc4c5c(nc(OC[C@]67CCCN6CC(=C)C7)nc5c3F)N3C[C@H]5CC[C@H](N5)[C@H]3[C@H](C)O4)c12 (single isomer, unassigned) [Example Z636] |  |  |  | 30.6 | 10.5 | 10.9 |
| C#Cc1c(F)ccc2cccc(-c3nc4c5c(nc(OC[C@]67CCCN6CCC7=C)nc5c3F)N3C[C@H]5CC[C@H](N5)[C@H]3[C@H](C)O4)c12 (single isomer, unassigned) [Example Z638] |  |  |  | 32 | 7.79 | 19.7 |
| C#Cc1c(F)ccc2cccc(-c3nc4c5c(nc(OC[C@]67C[C@@H](F)CN6CCC7=C)nc5c3F)N3C[C@H]5CC[C@H](N5)[C@H]3[C@H](C)O4)c12 (single isomer, unassigned) [Example Z689] |  |  |  | 17.4 | 6.61 | 19.3 |
| C#Cc1c(F)ccc2cccc(-c3nc4c5c(nc(OC[C@@]67C[C@@H](F)CN6CCC7=C)nc5c3F)N3C[C@H]5CC[C@H](N5)[C@H]3[C@H](C)O4)c12 (single isomer, unassigned) [Example Z690] |  |  |  | 45.9 | 16.7 | 31.5 |
| C#Cc1c(F)ccc2cccc(-c3nc4c5c(nc(OC[C@]67CC(=C)CN6CC[C@@H]7OC)nc5c3F)N3C[C@H]5CC[C@H](N5)[C@H]3[C@H](C)O4)c12 (single isomer, unassigned) [Example Z695] | 77.7 | 4.71 | 36.1 |  |  |  |
| C#Cc1c(F)ccc2cccc(-c3nc4c5c(nc(OC[C@@]67CC(=C)CN6CC[C@@H]7OC)nc5c3F)N3C[C@H]5CC[C@H](N5)[C@H]3[C@H](C)O4)c12 (single isomer, unassigned) [Example Z696] | 694 | 72.6 | 598 |  |  |  |
| C#Cc1cccc2cc(N)cc(-c3nc4c5c(nc(OC[C@@]67CCCN6CC(F)(F)C7)nc5c3F)N3C[C@H]5CC[C@H](N5)[C@H]3[C@H](C)O4)c12 (single isomer, unassigned) [Example Z735] |  |  |  | 18.1 | 5.62 | 35.2 |
| CCc1cccc2cc(O)cc(-c3nc4c5c(nc(OC[C@@]67CCCN6C[C@H](F)C7)nc5c3F)N3C[C@H]5CC[C@H](N5)[C@H]3CO4)c12 [Example Z140-1, 5-Ethyl-4-((5aS,6S,9R)-1-Fluoro-12-(((2R,7aS)-2-Fluorotetrahydro-1H-Pyrrolizin-7a (5H)-Yl)Methoxy)-5a,6,7,8,9,10-Hexahydro-5H-4-Oxa-3,10a,11,13,14-Pentaaza-6,9-Methanonaphtho[1,8-Ab]Heptalen-2-Yl) Naphthalen-2-Ol] |  |  |  | 21.1 | 2.85 | 4 |
| C#Cc1cccc2cccc(-c3nc4c5c(nc(OC[C@@]67CCCN6C[C@H](F)C7)nc5c3F)N3C[C@H]5CC[C@H](N5)[C@H]3[C@H](C)O4)c12 [Example Z360-1, (5S,5aS,6S,9R)-2-(8-ethynylnaphthalen-1-yl)-1-fluoro-12-(((2R,7aS)-2-fluorotetrahydro-1H-pyrrolizin-7a (5H)-yl)methoxy)-5-methyl-5a,6,7,8,9,10-hexahydro-5H-4-oxa-3,10a, 11,13,14-pentaaza-6,9-methanonaphtho[1,8-ab]heptalene] |  |  |  | 36.4 | 29.9 | 27.8 |
| C=C1CN2CCCC2(COc2nc3c4c(nc(-c5cccc6cccc(Cl)c56)c(F)c4n2)O[C@@H](CC)[C@@H]2[C@@H]4CC[C@H](CN32)N4)C1 (stereo partly drawn) [Example Z596, (5S,5aS,6S,9R)-2-(8-chloronaphthalen-1-yl)-5-ethyl-1-fluoro-12-((2-methylenetetrahydro-1H-pyrrolizin-7a (5H)-yl)methoxy)-5a,6,7,8,9,10-hexahydro-5H-4-oxa-3,10a,11,13,14-pentaaza-6,9-methanonaphtho[1,8-ab]heptalene] |  |  |  | 411 |  | 268 |
| C#Cc1c(F)ccc2cccc(-c3nc4c5c(nc(OCC67CC(=C)CN6C[C@@H](F)C7)nc5c3F)N3C[C@H]5CC[C@H](N5)[C@H]3[C@H](C)O4)c12 (stereo partly drawn) [Example Z634, (5S,5aS,6S,9R)-2-(8-ethynyl-7-fluoronaphthalen-1-yl)-1-fluoro-12-(((2S)-2-fluoro-6-methylenetetrahydro-1H-pyrrolizin-7a (5H)-yl)methoxy)-5-methyl-5a,6,7,8,9,10-hexahydro-5H-4-oxa-3,10a,11,13,14-pentaaza-6,9-methanonaphtho[1,8-ab]heptalene] |  |  |  | 883 |  |  |
| C#Cc1c(F)ccc2cccc(-c3nc4c5c(nc(OCC67C[C@H](OC)CN6CCC7=C)nc5c3F)N3C[C@H]5CC[C@H](N5)[C@H]3[C@H](C)O4)c12 (stereo partly drawn) [Example Z694, (5S,5aS,6S,9R)-2-(8-ethynyl-7-fluoronaphthalen-1-yl)-1-fluoro-12-(((6S)-6-methoxy-1-methylenetetrahydro-1H-pyrrolizin-7a (5H)-yl)methoxy)-5-methyl-5a,6,7,8,9,10-hexahydro-5H-4-oxa-3,10a, 11,13,14-pentaaza-6,9-methanonaphtho[1,8-ab]heptalene] |  |  |  | 405 |  | 397 |
| C#Cc1c(F)ccc2cccc(-c3nc4c5c(nc(OCC67CC(=C)CN6CC[C@H]7OC)nc5c3F)N3C[C@H]5CC[C@H](N5)[C@H]3[C@H](C)O4)c12 (stereo partly drawn) [Example Z704, (58,5aS,6S,9R)-2-(8-ethynyl-7-fluoronaphthalen-1-yl)-1-fluoro-12-(((1R)-1-methoxy-6-methylenetetrahydro-1H-pyrrolizin-7a (5H)-yl)methoxy)-5-methyl-5a,6,7,8,9,10-hexahydro-5H-4-oxa-3,10a, 11, 13,14-pentaaza-6,9-methanonaphtho[1,8-ab]heptalene] |  |  |  | 688 | 542 |  |
